Test results reported in US12403135B2, “4H-pyrrolo[3,2-c]pyridin-4-one derivatives” (Bayer Aktiengesellschaft, priority 2019, dated 2025).
Like-named read-outs stand apart in the source and are kept apart here.

What was measured:
Format in all cases: cell-based
Ba/F3-EGFR L861Q cells = test: BA/F3 (EGFR L861Q) proliferation, uncommon EGFR mutation; conditions: Table 10, classical activating and uncommon EGFR mutations
Procedure: (§1) Plates were incubated at 37° C. for 48 h. Retrovirus was harvested by filtering the media supernatant through a 0.45 μm filter.
(§2) Ba/F3 cells purchased from DSMZ were grown in RPMI+10% FBS+10 ng/mL IL-3 and infected with filtered retroviral supernatant at a 1:2 dilution. Polybrene was added to a concentration of 8 μg/mL, plates were spun for 90 min, and incubated overnight at 37° C. 2 μg/mL puromycin was added to the infected cells 24 h after infection and cells were continually grown in the presence of puromycin and 10 ng/mL IL-3. Following stably expressing Ba/F3 cell lines were generated: Ba/F3-EGFR-V769_D770 insASV, Ba/F3-EGFR-D770_N771 insNPG, Ba/F3-EGFR-N771_P772 insH, Ba/F3-EGFR-H773_V774 insNPH, Ba/F3-EGFR-D770_N771 insSVD C797S, Ba/F3-EGFR-E746_A750del C797S, Ba/F3-EGFR-L858R C797S, Ba/F3-EGFR L861Q and Ba/F3-ERBB2-A775_G776insYVMA (Ba/F3-vector-control).

[1] = target: Ba/F3-EGFR-D770_N771 insNPG cells (Homo sapiens, UniProt P00533, INS772GNP, cells depend on it); test: BA/F3 (insNPG) proliferation, EGFR Exon20 insertion mutation; conditions: Table 9; EGFR Exon20 insertion mutations; read-out: BA/F3 (insNPG) IC50
Procedure: as §1, §2

[2] = tested on: Ba/F3-EGFR-L858R C797S cells; test: BA/F3 (EGFR L858R C797S) proliferation, acquired resistance; conditions: Table 11, acquired resistance space
Procedure: as §1, §2

[3] = target: Ba/F3-ERBB2-A775_G776insYVMA cells (Homo sapiens, UniProt P04626, DUP772-775, cells depend on it); test: BA/F3 (ERBB2 A775_G776 insYVMA) proliferation; conditions: Table 12; read-out: BA/F3 (ERBB2 A775_G776 insYVMA) IC50
Procedure: as §1, §2

Ba/F3-EGFR-L858R cells = Ba/F3-EGFR-L858R cells (Homo sapiens, UniProt P00533, L858R, cells depend on it); test: BA/F3 EGFR L858R cell survival assay, Cell Titer-Glo; conditions: read-out: BA/F3 (EGFR L858R) IC50
Procedure: as §1
(§3) Ba/F3 cells purchased from DSMZ were grown in RPMI+10% FBS+10 ng/mL IL-3 and infected with filtered retroviral supernatant at a 1:2 dilution. Polybrene was added to a concentration of 8 μg/mL, plates were spun for 90 min, and incubated overnight at 37° C. 2 μg/mL puromycin was added to the infected cells 24 h after infection and cells were continually grown in the presence of puromycin and 10 ng/mL IL-3. Following stably expressing Ba/F3 cell lines were generated: Ba/F3-EGFR-L858R, Ba/F3-EGFR-delLREA, (Ba/F3-vector-control).
(§4) For cell survival assays, Ba/F3 cells were grown to a density of 1-2 million cells per mL, spun down and resuspended in media without IL-3, and replated at a concentration 200,000-500,000 cells per mL. The cells ectopically expressing pBABEpuro empty vector were plated with 10 ng/mL IL-3.
(§5) 2 days later, cells were plated in 50 μL in a 384 well plate at a concentration of 4000 cells per well for cells assayed in the absence of IL-3 and 2000 cells per well for cells (pBABE puro empty vector) assayed in the presence of IL-3. 100 nL of compound was added to each well using a 100 nL pin head, and plates were incubated at 37° C. for 48 h.
(§6) Cell viability was measured by adding 20 μL of Cell Titer-Glo Luminescent Cell Viability Reagent diluted 1:3 in PBS. Plates were sealed with Perkin Elmer Top-Seal, inverted several times to mix, and immediately centrifuged at 1000 rpm for 2 min. Plates were incubated in low light conditions for 8-10 min and luminescence was measured.

[4] = target: Ba/F3-EGFR-V769_D770 insASV cells (Homo sapiens, UniProt P00533, DUP767-769, cells depend on it); test: BA/F3 (ASV) proliferation, EGFR Exon20 insertion mutation; conditions: Table 9; EGFR Exon20 insertion mutations; read-out: BA/F3 (ASV) IC50
Procedure: as §1, §2

[5] = tested on: Ba/F3-EGFR-D770_N771 insSVD C797S cells; test: BA/F3 (EGFR D770_N771 insSVD C797S) proliferation, acquired resistance; conditions: Ba/F3 EGFR-D770-N771ins_SVD; Table 11; acquired resistance space
Procedure: as §1, §2

[6] = tested on: Ba/F3-EGFR-delLREA cells (EGFR del19/delLREA (746-750), E746_A750del); test: BA/F3 EGFR del19/delLREA (746-750) (E746_A750del) cell survival assay, Cell Titer-Glo
Procedure: as §1, §3, §4, §5, §6

[7] = target: Ba/F3-EGFR-WT cells (BA/F3 wild type EGFR) (Homo sapiens, UniProt P00533); test: BA/F3 (wild type) proliferation assay, Cell Titer-Glo; conditions: Table 7; plated with 10 ng/mL EGF, without IL-3, 48 h; read-out: BA/F3 (wild type) IC50
Procedure: as §1
as §3, with “Ba/F3-EGFR-WT.” for “Ba/F3-EGFR-L858R, Ba/F3-EGFR-delLREA, (Ba/F3-vector-control).”
For cell survival assays, Ba/F3 cells were grown to a density of 1-2 million cells per mL, spun down and resuspended in media without IL-3, and replated at a concentration 200,000-500,000 cells per mL. The cells ectopically expressing WT EGFR were plated with 10 ng/mL Millipore Culture grade EGF.
24 hours later, cells were plated in 30 μL in a 384 well plate at a concentration of 3200 cells per well for cells assayed in the absence of IL-3. 100 nL of compound was added to each well using a 100 nL pin head, and plates were incubated at 37° C. for 48 h.
as §6, with “30” for “20”, “Reagent.” for “Reagent diluted 1:3 in PBS.”

[8] = tested on: Ba/F3-EGFR-E746_A750del C797S cells; test: BA/F3 (EGFR E746_A750del C797S) proliferation, acquired resistance; conditions: Table 11, acquired resistance space
Procedure: as §1, §2

Sequence of Ba/F3-EGFR-L858R cells (P00533 whole entry L858R): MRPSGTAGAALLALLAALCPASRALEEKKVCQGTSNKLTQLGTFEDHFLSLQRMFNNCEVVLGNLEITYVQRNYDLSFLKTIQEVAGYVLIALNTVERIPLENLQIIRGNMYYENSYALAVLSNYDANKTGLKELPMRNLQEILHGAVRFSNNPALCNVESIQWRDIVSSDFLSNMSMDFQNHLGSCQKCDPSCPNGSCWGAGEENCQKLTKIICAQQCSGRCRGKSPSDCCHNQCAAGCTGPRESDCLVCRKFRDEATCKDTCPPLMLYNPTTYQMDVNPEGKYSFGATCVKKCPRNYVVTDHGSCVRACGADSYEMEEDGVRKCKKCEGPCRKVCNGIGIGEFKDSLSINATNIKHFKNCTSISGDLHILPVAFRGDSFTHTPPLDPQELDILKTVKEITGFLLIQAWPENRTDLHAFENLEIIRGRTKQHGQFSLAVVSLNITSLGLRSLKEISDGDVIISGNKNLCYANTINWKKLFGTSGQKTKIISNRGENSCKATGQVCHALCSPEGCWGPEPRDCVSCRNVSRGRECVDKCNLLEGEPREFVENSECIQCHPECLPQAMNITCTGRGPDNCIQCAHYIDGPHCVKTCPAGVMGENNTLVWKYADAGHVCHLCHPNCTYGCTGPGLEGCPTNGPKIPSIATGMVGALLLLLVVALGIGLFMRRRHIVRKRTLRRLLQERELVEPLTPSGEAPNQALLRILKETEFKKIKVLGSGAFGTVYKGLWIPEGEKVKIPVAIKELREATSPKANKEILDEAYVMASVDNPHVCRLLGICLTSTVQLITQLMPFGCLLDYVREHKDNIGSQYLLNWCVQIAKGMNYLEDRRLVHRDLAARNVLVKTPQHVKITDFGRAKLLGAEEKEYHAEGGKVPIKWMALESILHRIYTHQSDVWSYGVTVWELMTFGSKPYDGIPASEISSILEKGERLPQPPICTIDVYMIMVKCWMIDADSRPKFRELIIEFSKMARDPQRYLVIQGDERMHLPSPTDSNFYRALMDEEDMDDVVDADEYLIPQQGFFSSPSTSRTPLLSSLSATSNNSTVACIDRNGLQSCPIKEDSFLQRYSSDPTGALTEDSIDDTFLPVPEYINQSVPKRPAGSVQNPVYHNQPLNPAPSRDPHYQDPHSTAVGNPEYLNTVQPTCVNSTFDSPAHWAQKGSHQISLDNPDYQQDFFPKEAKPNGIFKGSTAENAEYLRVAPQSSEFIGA
Sequence of Ba/F3-EGFR-V769_D770 insASV cells (P00533 with tags, fused parts or gaps DUP767-769): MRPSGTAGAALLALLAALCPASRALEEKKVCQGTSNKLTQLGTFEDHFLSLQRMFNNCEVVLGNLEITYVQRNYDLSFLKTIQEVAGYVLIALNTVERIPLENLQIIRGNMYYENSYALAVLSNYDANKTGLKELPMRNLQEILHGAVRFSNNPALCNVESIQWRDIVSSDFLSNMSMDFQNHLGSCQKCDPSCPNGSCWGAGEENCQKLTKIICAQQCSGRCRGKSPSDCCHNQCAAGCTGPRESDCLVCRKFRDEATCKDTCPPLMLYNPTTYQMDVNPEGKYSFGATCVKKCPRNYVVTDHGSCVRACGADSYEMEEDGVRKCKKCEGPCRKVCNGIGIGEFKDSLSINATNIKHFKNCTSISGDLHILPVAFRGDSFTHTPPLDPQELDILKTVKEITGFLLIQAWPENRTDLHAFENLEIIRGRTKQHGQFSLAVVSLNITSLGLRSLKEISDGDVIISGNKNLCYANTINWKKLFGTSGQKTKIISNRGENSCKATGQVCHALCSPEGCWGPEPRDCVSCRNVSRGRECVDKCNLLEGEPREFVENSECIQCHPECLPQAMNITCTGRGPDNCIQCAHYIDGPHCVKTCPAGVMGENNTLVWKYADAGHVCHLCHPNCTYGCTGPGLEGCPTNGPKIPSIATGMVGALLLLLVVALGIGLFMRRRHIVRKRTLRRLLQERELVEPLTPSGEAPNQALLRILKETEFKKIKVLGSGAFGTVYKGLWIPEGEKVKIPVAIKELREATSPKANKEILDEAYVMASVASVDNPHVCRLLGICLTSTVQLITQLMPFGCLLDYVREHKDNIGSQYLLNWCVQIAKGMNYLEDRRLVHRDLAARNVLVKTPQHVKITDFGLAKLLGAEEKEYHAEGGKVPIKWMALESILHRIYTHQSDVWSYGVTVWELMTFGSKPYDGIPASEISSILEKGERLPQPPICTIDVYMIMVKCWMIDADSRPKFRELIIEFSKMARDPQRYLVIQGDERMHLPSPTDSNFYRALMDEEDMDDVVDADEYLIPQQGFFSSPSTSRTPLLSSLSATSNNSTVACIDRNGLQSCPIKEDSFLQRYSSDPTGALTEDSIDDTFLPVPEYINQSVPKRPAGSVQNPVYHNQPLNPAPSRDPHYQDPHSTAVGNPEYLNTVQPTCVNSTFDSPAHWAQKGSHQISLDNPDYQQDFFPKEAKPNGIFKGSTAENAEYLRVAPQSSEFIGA
Sequence of Ba/F3-ERBB2-A775_G776insYVMA cells (P04626 with tags, fused parts or gaps DUP772-775): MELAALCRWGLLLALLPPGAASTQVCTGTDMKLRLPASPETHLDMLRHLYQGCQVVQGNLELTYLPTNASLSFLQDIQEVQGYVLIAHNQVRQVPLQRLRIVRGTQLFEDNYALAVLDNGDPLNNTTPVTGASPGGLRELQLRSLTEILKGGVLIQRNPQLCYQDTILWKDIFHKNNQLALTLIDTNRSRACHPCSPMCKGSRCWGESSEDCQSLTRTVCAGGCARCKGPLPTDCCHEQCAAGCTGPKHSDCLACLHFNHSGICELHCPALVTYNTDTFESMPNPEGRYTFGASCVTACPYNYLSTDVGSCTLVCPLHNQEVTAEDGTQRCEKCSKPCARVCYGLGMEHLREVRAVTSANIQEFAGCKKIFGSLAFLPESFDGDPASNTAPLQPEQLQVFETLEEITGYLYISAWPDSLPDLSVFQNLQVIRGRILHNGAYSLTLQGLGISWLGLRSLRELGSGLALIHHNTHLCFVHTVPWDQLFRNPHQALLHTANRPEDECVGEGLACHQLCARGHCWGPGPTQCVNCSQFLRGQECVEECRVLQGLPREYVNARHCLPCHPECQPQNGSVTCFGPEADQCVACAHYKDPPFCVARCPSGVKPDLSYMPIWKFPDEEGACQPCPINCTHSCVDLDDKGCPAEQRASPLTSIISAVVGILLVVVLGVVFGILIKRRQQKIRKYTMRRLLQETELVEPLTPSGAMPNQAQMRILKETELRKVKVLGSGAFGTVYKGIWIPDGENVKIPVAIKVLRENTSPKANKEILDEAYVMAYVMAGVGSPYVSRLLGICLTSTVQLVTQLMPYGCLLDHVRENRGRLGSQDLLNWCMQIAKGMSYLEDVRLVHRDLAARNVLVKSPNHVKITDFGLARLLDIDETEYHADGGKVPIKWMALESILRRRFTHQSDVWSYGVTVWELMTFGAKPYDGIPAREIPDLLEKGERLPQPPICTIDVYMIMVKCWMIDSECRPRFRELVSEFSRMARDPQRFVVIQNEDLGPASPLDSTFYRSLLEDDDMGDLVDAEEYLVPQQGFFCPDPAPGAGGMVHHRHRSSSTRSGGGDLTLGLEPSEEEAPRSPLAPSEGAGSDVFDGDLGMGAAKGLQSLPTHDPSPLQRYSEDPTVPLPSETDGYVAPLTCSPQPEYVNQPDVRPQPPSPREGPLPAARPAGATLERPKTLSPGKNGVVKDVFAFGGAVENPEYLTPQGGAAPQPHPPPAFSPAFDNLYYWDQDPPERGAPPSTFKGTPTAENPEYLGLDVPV
Sequence of Ba/F3-EGFR-D770_N771 insNPG cells (P00533 with tags, fused parts or gaps INS772GNP): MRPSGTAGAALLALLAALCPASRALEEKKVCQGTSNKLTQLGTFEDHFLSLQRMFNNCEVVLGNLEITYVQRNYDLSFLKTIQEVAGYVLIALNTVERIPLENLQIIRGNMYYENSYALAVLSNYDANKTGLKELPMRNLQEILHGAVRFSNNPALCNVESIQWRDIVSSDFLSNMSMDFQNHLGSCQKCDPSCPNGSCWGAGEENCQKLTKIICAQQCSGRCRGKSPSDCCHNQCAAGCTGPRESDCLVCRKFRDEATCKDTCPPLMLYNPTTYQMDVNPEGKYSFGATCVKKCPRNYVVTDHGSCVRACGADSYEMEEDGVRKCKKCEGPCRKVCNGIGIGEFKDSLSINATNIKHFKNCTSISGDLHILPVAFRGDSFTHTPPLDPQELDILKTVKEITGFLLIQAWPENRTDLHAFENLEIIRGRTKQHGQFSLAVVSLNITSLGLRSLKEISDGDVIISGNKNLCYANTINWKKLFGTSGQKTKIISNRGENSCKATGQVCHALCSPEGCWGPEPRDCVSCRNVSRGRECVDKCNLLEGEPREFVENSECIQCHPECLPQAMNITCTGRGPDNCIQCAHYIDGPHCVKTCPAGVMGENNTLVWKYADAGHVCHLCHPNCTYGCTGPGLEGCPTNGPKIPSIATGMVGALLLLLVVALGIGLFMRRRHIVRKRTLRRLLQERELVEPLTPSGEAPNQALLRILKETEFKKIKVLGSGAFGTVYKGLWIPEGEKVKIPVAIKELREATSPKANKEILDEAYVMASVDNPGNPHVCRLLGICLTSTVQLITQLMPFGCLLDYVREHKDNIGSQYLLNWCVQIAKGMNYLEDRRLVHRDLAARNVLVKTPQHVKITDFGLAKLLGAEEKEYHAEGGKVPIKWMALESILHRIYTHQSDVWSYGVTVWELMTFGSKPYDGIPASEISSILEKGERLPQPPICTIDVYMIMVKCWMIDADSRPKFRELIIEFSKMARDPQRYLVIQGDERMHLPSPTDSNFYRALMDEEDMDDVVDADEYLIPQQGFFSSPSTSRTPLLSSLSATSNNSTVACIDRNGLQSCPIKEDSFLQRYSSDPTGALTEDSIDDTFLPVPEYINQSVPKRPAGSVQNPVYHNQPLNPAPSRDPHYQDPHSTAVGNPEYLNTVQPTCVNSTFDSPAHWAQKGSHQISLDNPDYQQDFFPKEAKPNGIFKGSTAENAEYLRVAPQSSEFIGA

IC50 (Ba/F3-EGFR L861Q cells): 25.7 nM
GI50 [1]: 12.8 nM
IC50 [2]: 1.16 nM
GI50 [3]: 17.1 nM
GI50 [4]: 15.3 nM
IC50 [5]: 16.6 nM
GI50 [7]: 397 nM
IC50 [8]: 0.292 nM
Compound: COc1c(F)cccc1Nc1c(-c2ccncc2OCC(C)(C)OC)[nH]c2c1C(=O)NCC2 [Example 17, 3-[(3-fluoro-2-methoxyphenyl)amino]-2-[3-(2-methoxy-2-methylpropoxy)pyridin-4-yl]-1,5,6,7-tetrahydro-4H-pyrrolo[3,2-c]pyridin-4-one]
GI50 (Ba/F3-EGFR-L858R cells; Table 8, without IL-3, 48 h): 1.2 nM
GI50 (Ba/F3-EGFR-L858R cells; Table 10, classical activating and uncommon EGFR mutations): 1.49 nM
IC50 ([6]; Table 8, without IL-3, 48 h, read-out: BA/F3 (EGFR del19/delREA (746-750) IC50)): 0.13 nM
IC50 ([6]; Table 10, classical activating and uncommon EGFR mutations, read-out: BA/F3 (EGFR E746_A750del) IC50): 0.575 nM
